Assay results: US20200231614A1, “PSMA TARGETED RADIOHALOGENATED UREAS FOR CANCER RADIOTHERAPY” (THE JOHNS HOPKINS UNIVERSITY, priority 2015, published 2020)
Where two headings read alike, the source gives them in different places.

Key:
[1] = tested on: PSMA + PC-3 PiP and PSMA − PC-3 flu tumor xenografts; conditions: radioiodinated compound, Chen et al., 2008; cited from earlier work
[2] = tested on: PSMA + PC-3 PiP and PSMA − PC-3 flu tumor xenografts; conditions: for Biodistribution: PC-3 PiP: PSMA+ tumor xenograft; for Biodistribution: PC-3 flu: PSMA− tumor xenograft

For O=C(O)CC[C@H](NC(=O)N[C@@H](CCCCNC(=O)c1ccc(I)cc1)C(=O)O)C(=O)O [YC-I-27], the “Tumor uptake (in words)” value [1] is given as “high and prolonged tumor uptake”.
For O=C(O)CC[C@H](NC(=O)N[C@@H](CCCCNC(=O)c1ccc([131I])cc1)C(=O)O)C(=O)O [[^131I]YC-I-27], the “Biodistribution: Sm int.” value ([2]; 1 H post-injection) was 1.83 ± 0.41 % ID/g, the “Biodistribution: bladder” value ([2]; 1 H post-injection) was 2.99 ± 0.42 % ID/g and the “Biodistribution: blood” value ([2]; 1 H post-injection) was 1.57 ± 0.69 % ID/g. For the same compound, the “Biodistribution: heart” value ([2]; 1 H post-injection) was 1.88 ± 0.66 % ID/g, the “Biodistribution: liver” value ([2]; 1 H post-injection) was 7.37 ± 1.29 % ID/g and the “Biodistribution: lung” value ([2]; 1 H post-injection) was 4.67 ± 0.63 % ID/g. The “Biodistribution: muscle” value ([2]; 1 H post-injection) was 0.73 ± 0.22 % ID/g, the “Biodistribution: spleen” value ([2]; 1 H post-injection) was 21.2 ± 3.62 % ID/g and the “Biodistribution: stomach” value ([2]; 1 H post-injection) was 0.92 ± 0.16 % ID/g. For the same compound, the “Biodistribution: thyroid” value ([2]; 1 H post-injection) was 0.45 ± 0.14 % ID/g, the “Biodistribution: Sm int.” value ([2]; 2 H post-injection) was 1.92 ± 0.55 % ID/g and the “Biodistribution: bladder” value ([2]; 2 H post-injection) was 2.96 ± 1.12 % ID/g. The “Biodistribution: blood” value ([2]; 2 H post-injection) was 0.86 ± 0.20 % ID/g, the “Biodistribution: heart” value ([2]; 2 H post-injection) was 1.31 ± 0.58 % ID/g and the “Biodistribution: liver” value ([2]; 2 H post-injection) was 5.69 ± 1.49 % ID/g. For the same compound, the “Biodistribution: lung” value ([2]; 2 H post-injection) was 4.92 ± 1.95 % ID/g, the “Biodistribution: muscle” value ([2]; 2 H post-injection) was 0.62 ± 0.19 % ID/g and the “Biodistribution: spleen” value ([2]; 2 H post-injection) was 26.25 ± 15.11 % ID/g. The “Biodistribution: stomach” value ([2]; 2 H post-injection) was 0.71 ± 0.46 % ID/g, the “Biodistribution: thyroid” value ([2]; 2 H post-injection) was 0.24 ± 0.18 % ID/g and the “Biodistribution: Sm int.” value ([2]; 4 H post-injection) was 1.37 ± 0.51 % ID/g. The “Biodistribution: bladder” value ([2]; 4 H post-injection) was 1.37 ± 0.48 % ID/g, the “Biodistribution: blood” value ([2]; 4 H post-injection) was 0.59 ± 0.27 % ID/g and the “Biodistribution: heart” value ([2]; 4 H post-injection) was 0.87 ± 0.24 % ID/g. The “Biodistribution: liver” value ([2]; 4 H post-injection) was 3.21 ± 1.14 % ID/g, the “Biodistribution: lung” value ([2]; 4 H post-injection) was 2.72 ± 1.01 % ID/g and the “Biodistribution: muscle” value ([2]; 4 H post-injection) was 0.43 ± 0.30 % ID/g. For the same compound, the “Biodistribution: spleen” value ([2]; 4 H post-injection) was 18.2 ± 6.19 % ID/g, the “Biodistribution: stomach” value ([2]; 4 H post-injection) was 0.69 ± 0.23 % ID/g and the “Biodistribution: thyroid” value ([2]; 4 H post-injection) was 0.10 ± 0.22 % ID/g. For the same compound, the “Biodistribution: Sm int.” value ([2]; 21 H post-injection) was 0.33 ± 0.12 % ID/g, the “Biodistribution: bladder” value ([2]; 21 H post-injection) was 0.48 ± 0.09 % ID/g and the “Biodistribution: blood” value ([2]; 21 H post-injection) was 0.16 ± 0.06 % ID/g. For the same compound, the “Biodistribution: heart” value ([2]; 21 H post-injection) was 0.46 ± 0.22 % ID/g, the “Biodistribution: liver” value ([2]; 21 H post-injection) was 0.56 ± 0.09 % ID/g and the “Biodistribution: lung” value ([2]; 21 H post-injection) was 1.63 ± 0.47 % ID/g. For the same compound, the “Biodistribution: muscle” value ([2]; 21 H post-injection) was 0.14 ± 0.03 % ID/g, the “Biodistribution: spleen” value ([2]; 21 H post-injection) was 5.25 ± 1.51 % ID/g and the “Biodistribution: stomach” value ([2]; 21 H post-injection) was 0.40 ± 0.07 % ID/g. For the same compound, the “Biodistribution: thyroid” value ([2]; 21 H post-injection) was 0.13 ± 0.11 % ID/g, the “Biodistribution: PC-3 PiP” value ([2]; 1 H post-injection) was 13.1 ± 5.55 % ID/g and the “Biodistribution: PC-3 PiP” value ([2]; 2 H post-injection) was 15.5 ± 4.19 % ID/g. For the same compound, the “Biodistribution: PC-3 PiP” value ([2]; 4 H post-injection) was 16.3 ± 3.80 % ID/g, the “Biodistribution: PC-3 PiP” value ([2]; 21 H post-injection) was 25.6 ± 10.2 % ID/g and the “Biodistribution: PC-3 flu” value ([2]; 1 H post-injection) was 0.62 ± 0.11 % ID/g. For the same compound, the “Biodistribution: PC-3 flu” value ([2]; 2 H post-injection) was 0.40 ± 0.11 % ID/g, the “Biodistribution: PC-3 flu” value ([2]; 4 H post-injection) was 0.22 ± 0.07 % ID/g and the “Biodistribution: PC-3 flu” value ([2]; 21 H post-injection) was 0.06 ± 0.01 % ID/g. For the same compound, the “PSMA positive tumor uptake (in words)” value ([2]; biodistributions of Tables 2, 3, 9, 10) was “demonstrated PSMA positive tumor uptake”.
